Like-named read-outs stand apart in the source and are kept apart here.
Experiments:
Assay type in all cases: cell-based
NCI-H358 cells = experiment: Cell proliferation activity of NCI-H358 by CellTiter-Glo reagent; details: for IC50: read-out: IC50 value of cell proliferation inhibitory activity of NCI-H358
Procedure: NCI-H358 cells in exponential growth phase were digested with trypsin-EDTA, plated in a 96-well plate with 2000-3000 cells per well, and incubated overnight at 37° C. with 5% CO2. […] After the incubation, CellTiter-Glo test reagent with an equal volume was added into each well and the obtained 96-well plate was incubated after shaking. The chemiluminescence values were determined by microplate reader, and the IC50 values of the test compounds inhibiting the proliferation of NCI-H358 cells were fitted and calculated by GraphPad Prism software.
The test method of inhibitory activity was the same as that in Test 3 in “Biological Tests” part.

NCI-H358 = experiment: Cell proliferation inhibitory activity on NCI-H358, 3D model test (agarose colony formation); details: for IC50: Homo sapiens, NCI-H358, 3D agarose colony formation, NBT staining
Procedure: 100 μl of agarose gel with a high concentration was spread in a 96-well plate as the bottom agarose gel layer. Agarose with a low concentration and growth medium containing cells were mixed and then spread on the bottom agar layer, cooled and solidified, then incubated overnight at 37° C. Mother solutions were prepared from the test compounds by using DMSO, and then subjected to gradient elution with RPMI 1640 growth medium. The solutions of test compounds with different concentrations after gradient elution were added to the 96-well plate comprising an upper layer of agar gel-cells. Solvent control well was set up and the plate was incubated in a CO2 incubator. The drug-containing medium was changed during the incubation period and the cell growth situation was observed. After the incubation, the cells were stained with NBT and the number of cell colony formation was counted, and the IC50 values of the compounds inhibiting cell proliferation were derived.

MIA PaCa-2 cells = experiment: Cell proliferation activity of MIA PaCa-2 by CellTiter-Glo reagent; details: 72 h, CellTiter-Glo; for IC50: Homo sapiens, MIA PaCa-2, read-out: IC50 value of cell proliferation inhibitory activity of the compound on MIA PaCa-2
Procedure: MIA PaCa-2 cells in exponential growth phase were digested with trypsin-EDTA, plated in a 96-well plate with 2000-3000 cells per well, and incubated overnight at 37° C. with 5% CO2. Mother solutions were prepared from the test compounds by using DMSO, subjected to gradient elution with DMEM growth medium, and then added into the 96-well plate and incubated in an incubator for 72 h at 37° C. with 5% CO2. After the incubation, CellTiter-Glo test reagent with an equal volume was added into each well and the obtained 96-well plate was incubated after shaking. The chemiluminescence values were determined by microplate reader, and the IC50 values of the test compounds inhibiting the proliferation of MIA PaCa-2 cells were fitted and calculated by GraphPad Prism software.
The test method of inhibitory activity was the same as that in Test 2 in “Biological Tests” part.

[1] = Homo sapiens, NCI-H358, 72 h, 72 h, CellTiter-Glo, test 3
[2] = Homo sapiens, NCI-H358, test 4, method of test 3

| Compound | anti-cell proliferation activity against KRAS G12C mutant type cells NCI-H358 (in words) (NCI-H358 cells; 72 h, CellTiter-Glo) | IC50 (NCI-H358 cells; [2]) [nM] | IC50 (NCI-H358) [nM] | further results |
| --- | --- | --- | --- | --- |
| [2H]/C=C(\[2H])C(=O)N1CCN(c2nc(=O)n(-c3c(C)ccnc3C(C)C)c3nc(-c4c(F)cccc4C=C)c(Cl)cc23)[C@@H](C)C1 [Compound 3-51] | significant anti-cell proliferation activity | – | – | IC50 (NCI-H358 cells; [1]): < 50 nM |
| [2H]C([2H])=Cc1cccc(F)c1-c1nc2c(cc1Cl)c(N1[C@@H](C)CN(C(=[18O])C=C)C[C@@H]1C)nc(=O)n2-c1c(C)ccnc1C(C)C [Compound 3-11MIS] | significant anti-cell proliferation activity | < 50 | – | – |
| [2H]C([2H])=Cc1ccccc1-c1nc2c(cc1Cl)c(N1CCN(C(=O)C=C)C[C@@H]1C)nc(=O)n2-c1c(C)ccnc1C(C)C [Compound 3-24] | – | – | < 50 | IC50 (MIA PaCa-2 cells): < 50 nM |
| C=CC(=O)N1CCN(c2nc(=O)n(-c3c(C)ccnc3C(C)C)c3nc(-c4ccccc4C=C)c(F)cc23)[C@@H](C)C1 [Compound 3-1] | – | – | < 50 | anti-cell proliferation activity against KRAS G12C mutant type cells NCI-H358 (in words) (NCI-H358; 3D model test): significant anti-cell proliferation activity; anti-cell proliferation activity against KRAS G12C mutant type cells MIA PaCa-2 (in words) (MIA PaCa-2 cells): significant anti-cell proliferation activity; IC50 (MIA PaCa-2 cells): < 50 nM |
| [2H]C([2H])=Cc1ccccc1-c1nc2c(cc1F)c(N1CCN(C(=O)C=C)C[C@@H]1C)nc(=O)n2-c1c(C)ccnc1C(C)C [Compound 3-23] | – | – | < 50 | IC50 (MIA PaCa-2 cells): < 50 nM |
| [2H][C@]1(C)CN(C(=O)C=C)CCN1c1nc(=O)n(-c2c(C)ccnc2C(C)C)c2nc(-c3c(F)cccc3C=C)c(Cl)cc12 [Compound 3-49] | significant anti-cell proliferation activity | – | – | IC50 (NCI-H358 cells; [1]): < 50 nM |
| C=CC(=[18O])N1CCN(c2nc(=O)n(-c3c(C)ccnc3C(C)C)c3nc(-c4ccccc4C=C)c(Cl)cc23)[C@@H](C)C1 [Compound 3-1MIS] | significant anti-cell proliferation activity | < 50 | – | – |
| C=CC(=[18O])N1C[C@H](C)N(c2nc(=O)n(-c3c(C)ccnc3C(C)C)c3nc(-c4c(F)cccc4C=C)c(Cl)cc23)[C@@H](C)C1 [Compound 3-7MIS] | significant anti-cell proliferation activity | < 50 | – | – |
| [2H]C([2H])=Cc1cccc(F)c1-c1nc2c(cc1F)c(N1CCN(C(=O)C(=C)F)C[C@@H]1C)nc(=O)n2-c1c(C(C)C)ccnc1C(C)C [Compound 5-11] | – | – | < 50 | – |
| C=CC(=[18O])N1CCN(c2nc(=O)n(-c3c(C)ccnc3C(C)C)c3nc(-c4c(F)cccc4C=C)c(Cl)cc23)[C@@H](C)C1 [Compound 3-5MIS] | significant anti-cell proliferation activity | < 50 | – | – |
| [2H]C([2H])([2H])c1ccnc(C(C)C)c1-n1c(=O)nc(N2CCN(C(=O)C=C)C[C@@H]2C)c2cc(F)c(-c3ccccc3C=C)nc21 [Compound 4-23] | – | – | < 50 | IC50 (MIA PaCa-2 cells): < 50 nM |
| [2H]C([2H])=Cc1cccc(F)c1-c1nc2c(cc1Cl)c(N1CCN(C(=[18O])C=C)C[C@@H]1C)nc(=O)n2-c1c(CC)ccnc1C(C)C [Compound 3-12MIS] | significant anti-cell proliferation activity | < 50 | – | – |
| [2H]C([2H])=Cc1cccc(F)c1-c1nc2c(cc1F)c(N1CCN(C(=O)C=C)C[C@@H]1C)nc(=O)n2-c1c(C([2H])([2H])[2H])ccnc1C(C)C [Compound 4-3] | – | – | < 50 | IC50 (MIA PaCa-2 cells): < 50 nM |
| C=CC(=O)N1C[C@H](C)N(c2nc(=O)n(-c3c(C)ccnc3C(C)C)c3nc(-c4c(F)cccc4C=C)c(Cl)cc23)[C@@H](C)C1 [Compound 3-8] | – | – | – | IC50 (MIA PaCa-2 cells): < 50 nM |
| [2H]C([2H])=Cc1ccccc1-c1nc2c(cc1Cl)c(N1[C@@H](C)CN(C(=O)C=C)C[C@@H]1C)nc(=O)n2-c1c(CC)ccnc1C(C)C [Compound 2-3] | significant anti-cell proliferation activity | – | – | – |
| [2H]C([2H])=Cc1ccccc1-c1nc2c(cc1F)c(N1CCN(C(=O)C(=C)F)C[C@@H]1C)nc(=O)n2-c1c(C([2H])([2H])[2H])ccnc1C(C)C [Compound 4-16] | – | – | < 50 | – |
| [2H]C([2H])=Cc1cccc(F)c1-c1nc2c(cc1F)c(N1CCN(C(=O)C(=C)F)C[C@@H]1C)nc(=O)n2-c1c(C([2H])([2H])[2H])ccnc1C(C)C [Compound 4-11] | – | – | < 50 | – |
| [2H]C([2H])=Cc1cccc(F)c1-c1nc2c(cc1F)c(N1[C@@H](C)CN(C(=O)C(=C)F)C[C@@H]1C)nc(=O)n2-c1c(C([2H])([2H])[2H])ccnc1C(C)C [Compound 4-9] | – | – | < 50 | – |
| [2H]C([2H])=Cc1cccc(F)c1-c1nc2c(cc1F)c(N1[C@@H](C)CN(C(=O)C(=C)F)C[C@@H]1C)nc(=O)n2-c1c(C(C)C)ccnc1C(C)C [Compound 5-9] | – | – | < 50 | – |
| [2H]C([2H])=Cc1cccc(F)c1-c1nc2c(cc1Cl)c(N1CCN(C(=[18O])C=C)C[C@@H]1C)nc(=O)n2-c1c(C)ccnc1C(C)C [Compound 3-9MIS] | significant anti-cell proliferation activity | < 50 | – | – |
| C=CC(=O)N1CCN(c2nc(=O)n(-c3c(C)ccnc3C(C)C)c3nc(-c4c(F)cccc4C=C)c(Cl)cc23)[C@@H](C)C1 [Example 3-12P] | – | – | – | IC50 (NCI-H358 cells; 72 h, CellTiter-Glo, test 3): > 50 nM |
| C=CC(=[18O])N1CCN(c2nc(=O)n(-c3c(CC)ccnc3C(C)C)c3nc(-c4ccccc4C=C)c(Cl)cc23)[C@@H](C)C1 [Compound 3-4MIS] | significant anti-cell proliferation activity | < 50 | – | – |
| [2H]C([2H])=Cc1cccc(F)c1-c1nc2c(cc1F)c(N1[C@@H](C)CN(C(=O)C(=C)F)C[C@@H]1C)nc(=O)n2-c1c(C)ccnc1C(C)C [Compound 3-25] | – | – | < 50 | – |
| [2H]C([2H])=Cc1cccc(F)c1-c1nc2c(cc1F)c(N1CCN(C(=O)C(=C)F)C[C@@H]1C)nc(=O)n2-c1c(C)ccnc1C(C)C [Compound 3-27] | – | – | < 50 | – |
| [2H]/C=C(\[2H])C(=O)N1CCN(c2nc(=O)n(-c3c(CC)ccnc3C(C)C)c3nc(-c4c(F)cccc4C=C)c(Cl)cc23)[C@@H](C)C1 [Compound 2-8] | significant anti-cell proliferation activity | – | – | IC50 (NCI-H358 cells; [1]): < 50 nM |
| [2H]C([2H])=Cc1ccccc1-c1nc2c(cc1Cl)c(N1CCN(C(=O)C=C)C[C@@H]1C)nc(=O)n2-c1c(C)ccnc1C(C)C [Compound 3-16M] | significant anti-cell proliferation activity | – | – | IC50 (NCI-H358 cells; [1]): < 50 nM; cell proliferation inhibitory activity on NCI-H358 compared with the corresponding compound with axial chiral S configuration (in words) (NCI-H358 cells; NCI-H358): significantly better |
| C=CC(=[18O])N1C[C@H](C)N(c2nc(=O)n(-c3c(C)ccnc3C(C)C)c3nc(-c4ccccc4C=C)c(Cl)cc23)[C@@H](C)C1 [Compound 3-3MIS] | significant anti-cell proliferation activity | < 50 | – | – |
| C=CC(=[18O])N1CCN(c2nc(=O)n(-c3c(CC)ccnc3C(C)C)c3nc(-c4c(F)cccc4C=C)c(Cl)cc23)[C@@H](C)C1 [Compound 3-8MIS] | significant anti-cell proliferation activity | < 50 | – | – |
| C=CC(=O)N1CCN(c2nc(=O)n(-c3c(CC)ccnc3C(C)C)c3nc(-c4ccccc4C=C)c(Cl)cc23)[C@@H](C)C1 [Compound 3-4MIS] | – | – | – | IC50 (NCI-H358 cells; 72 h, CellTiter-Glo, test 3): < 50 nM |
